Measurements from patent publication US8524716B2, “Macrocyclic indoles as hepatitis C virus inhibitors” (priority 2007, dated 2013).
Where two headings read alike, the source gives them in different places.

How the values were obtained:
[1] = tested on: HCV replicons (NS3-NS5B regions of HCV type 1b) in Huh-Luc cells; experiment: HCV replicon assay in Huh-7 luc/neo (Huh-Luc) cells, luciferase readout; assay type: cell-based; details: three days incubation, luciferase activity
Description: The compounds of formula (I) were examined for activity in the inhibition of HCV RNA replication in a cellular assay. […] The cellular assay was based on a bicistronic expression construct, as described by Lohmann et al. (1999) Science vol. 285 pp. 110-113 with modifications described by Krieger et al. (2001) Journal of Virology 75: 4614-4624, in a multi-target screening strategy. In essence, the method was as follows.
The assay utilized the stably transfected cell line Huh-7 luc/neo (hereafter referred to as Huh-Luc). This cell line harbors an RNA encoding a bicistronic expression construct comprising the wild type NS3-NS5B regions of HCV type 1b translated from an Internal Ribosome Entry Site (IRES) from encephalomyocarditis virus (EMCV), preceded by a reporter portion (firefly luciferase), and a selectable marker portion (neo^R, neomycine phosphotransferase). The construct is bordered by 5′ and 3′ NTRs (non-translated regions) from HCV type 1b. Continued culture of the replicon cells in the presence of G418 (neo^R) is dependent on the replication of the HCV RNA. The stably transfected replicon cells that express HCV RNA, which replicates autonomously and to high levels, encoding inter alia luciferase, were used for screening the antiviral compounds.
The replicon cells were plated in 384 well plates in the presence of the test and control compounds which were added in various concentrations. Following an incubation of three days, HCV replication was measured by assaying luciferase activity (using standard luciferase assay substrates and reagents and a Perkin Elmer ViewLux™ ultraHTS microplate imager). […] The inhibitory activity of the compound on luciferase activity was monitored on the Huh-Luc cells, enabling a dose-response curve for each test compound. EC50 values were then calculated, which value represents the amount of the compound required to decrease the level of detected luciferase activity by 50%, or more specifically, the ability of the genetically linked HCV replicon RNA to replicate.

HCV NS5B = HCV NS5B (Hepatitis C virus genotype 1b (strain HC-J4), UniProt O92972); experiment: biochemical; assay type: biochemical
HCV NS5B, sequence (O92972 2420-3010 limits assumed): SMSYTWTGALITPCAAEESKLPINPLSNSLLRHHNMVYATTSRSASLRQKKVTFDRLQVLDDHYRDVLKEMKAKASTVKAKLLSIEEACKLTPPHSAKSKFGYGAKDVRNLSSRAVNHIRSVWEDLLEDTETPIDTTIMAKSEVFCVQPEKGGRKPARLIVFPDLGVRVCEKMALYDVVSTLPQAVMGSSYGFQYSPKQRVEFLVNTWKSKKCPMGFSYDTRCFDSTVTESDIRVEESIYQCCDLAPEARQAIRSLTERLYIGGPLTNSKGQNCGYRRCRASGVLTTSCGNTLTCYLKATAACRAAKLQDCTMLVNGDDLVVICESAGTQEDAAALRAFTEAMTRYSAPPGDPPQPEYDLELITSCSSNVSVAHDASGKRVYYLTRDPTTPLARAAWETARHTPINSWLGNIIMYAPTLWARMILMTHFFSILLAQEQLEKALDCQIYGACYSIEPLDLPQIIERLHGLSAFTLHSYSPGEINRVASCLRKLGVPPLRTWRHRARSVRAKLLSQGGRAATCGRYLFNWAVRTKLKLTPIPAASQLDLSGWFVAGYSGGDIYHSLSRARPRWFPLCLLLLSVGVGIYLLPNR
Protocol: The cDNA encoding NS5B amino acid 1-570 (HC-J4, genotype 1b, pCV-J4L6S, genebank accession number AF054247) was subcloned into the Nhe I and Xho I restriction sites of pET-21b. Expression of the subsequent His-tagged C-terminal 21 amino acid deleted NS5B was performed as follows:
The NS5B expression construct was transformed into E. coli BL21(DE3) (Novagen, Madison, Wis.). Five milliliters of LB-medium supplemented with ampicillin (50 μg/mL) was inoculated with one colony. When the pre-culture reached an optical density of 0.6 measured at 600 nm, it was transferred to fresh LB-medium supplemented with ampicillin, at a ratio of 1:200. Cells were grown to an optical density at 600 nm of 0.6, after which the expression cultures were shifted to a growth temperature of 20° C. following induction with isopropyl-1-thio-β-D-galactopyranoside and MgCl2 at a final concentration of 0.4 mM and 10 μM, respectively. After ten hours of induction, cells were harvested by centrifugation and resuspended in 20 mM Tris-HCl, pH 7.5, 300 mM NaCl, 10% glycerol, 0.1% NP40, 4 mM MgCl2, 5 mM DTT supplemented with EDTA-free Complete Protease Inhibitor (Roche, Basel, Switzerland). Cell suspensions were disrupted by sonication and incubated with 10-15 mg/L of DNase I (Roche, Basel, Switzerland) for 30 minutes. Cell debris was removed through ultracentrifugation at 30,000×g for 1 hour and clarified cell lysate was flash frozen and stored at −80° C. prior to purification.
Clarified cell lysate was thawed and subsequently loaded onto a 5 mL pre-packed HisTrap FF column equilibrated with 25 mM HEPES, pH 7.5, 500 mM NaCl, 10% glycerol and 5 mM DTT. Proteins were eluted with 500 mM imidazole at a flow rate of 1 mL/min. Fractions containing the protein of interest were applied onto a pre-packed 26/10 HiPrep Desalting Column equilibrated with 25 mM HEPES, pH 7.5, 150 mM NaCl, 10% glycerol and 5 mM DTT. The buffer-exchanged NS5B peak was then applied onto a 20 mL Poly-U Sepharose column. Protein was eluted with an increasing salt gradient and fractions collected. Protein purity was assessed on Nu-PAGE pre-cast gels (Invitrogen, Carlsbad, Calif.). Purified NS5B samples were concentrated using Centri-Prep concentrators (Millipore, Billerica, Mass., USA) and protein concentrations were determined by Bradford assay (Pierce, Rockford, Ill., USA).
Measurement of HCV NS5B polymerization activity was performed by evaluating the amount of radio labeled GTP incorporated by the enzyme in a newly synthesized RNA using heteropolymeric RNA template/primer. The high-throughput RNA dependent RNA polymerase (RdRp) assay was carried out in 384-well plates using 100 nM enzyme, 300 nM 5′-biotinylated oligo(rG13)/poly(rC) primer-template, 600 nM of GTP, and 0.1 μCi of [^3H]GTP in 25 mM Tris-HCl, pH 7.5, 5 mM MgCl2, 25 mM KCl, 17 mM NaCl and 3 mM of dithiothreitol (DTT). Test compounds were dissolved in DMSO. The test compounds were added to the preformed polymerase-template complex, and incubated at room temperature for 15 min before the addition of nucleoside triphosphates (NTP). The 30 μl reaction was terminated after 2 h at 25° C. upon addition of 30 μl A PVT-SPA beads (Amersham Biosciences RPNQ0009, 5 mg/ml in 0.5 M EDTA).

[2] = 100 nM enzyme, [3H]GTP incorporation, 2 h at 25° C., read-out: IC50 (μM) Enzymatic assay

Row | Molecule | EC50 [1] | IC50 (HCV NS5B; [2]) | EC50 ([1]; Hepatitis C virus, Huh-7, 72 h) | IC50 (HCV NS5B)
1 | 17-Cyclohexyl-18-furan-3-yl-9-methyl-10,10-dioxo-10λ^6-thia-1,4,9,11-tetraaza-tricyclo[11.5.2.016,19]icosa-13(20),14,16(19),17-tetraene-3,12-dione [Cpd 28] | 1.58 µM | – | – | –
2 | O=C1Cn2c(-c3ccoc3)c(C3CCCCC3)c3ccc(cc32)C(=O)NCC/C=C\CCN1 [Cpd 1, 17-cyclohexyl-18-(furan-3-yl)-1,4,11-triaza-tricyclo-[11.5.2.0^16,19]icosa-7,13(20),14,16(19),17-pentaene-3,12-dione] | – | 2.2 µM | 3.4 µM | –
3 | O=C1Cn2c(-c3ccoc3)c(C3CCCCC3)c3ccc(cc32)C(=O)NCCCCCCN1 [Cpd 2, 17-Cyclohexyl-18-(furan-3-yl)-1,4,11-triaza-tricyclo[11.5.2.0^16,19]icosa-13(20),14,16(19),17-tetraene-3,12-dione] | – | 9.5 µM | 4.3 µM | –
4 | CS(=O)(=O)N1CCN(c2ccc([N+](=O)[O-])cc2COc2ccc(-c3c(C4CCCCC4)c4ccc5cc4n3CC(=O)NCC/C=C\CCNC5=O)cc2)CC1 [Cpd 3, 17-cyclohexyl-18-[4-[2-(4-methanesulfonylpiperazin-1-yl)-5-nitrobenzyloxy]phenyl]-1,4,11-triazatricyclo[11.5.2.0^16,19]icosa-7,13(20),14,16(19),17-pentaene-3,12-dione] | – | 1.1 µM | 0.72 µM | –
5 | CS(=O)(=O)N1CCN(c2ccc(N)cc2COc2ccc(-c3c(C4CCCCC4)c4ccc5cc4n3CC(=O)NCC/C=C\CCNC5=O)cc2)CC1 [Cpd 4, 17-cyclohexyl-18-[4-[2-(4-methanesulfonylpiperazin-1-yl)-5-amino-benzyloxy]phenyl]-1,4,11-triazatricyclo[11.5.2.0^16,19]icosa-7,13(20),14,16(19),17-pentaene-3,12-dione] | – | 0.27 µM | 0.24 µM | –
6 | CC(=O)Nc1ccc(N2CCN(S(C)(=O)=O)CC2)c(COc2ccc(-c3c(C4CCCCC4)c4ccc5cc4n3CC(=O)NCC/C=C\CCNC5=O)cc2)c1 [Cpd 5, 17-cyclohexyl-18-[4-[2-(4-methanesulfonylpiperazin-1-yl)-5-acetylamino-benzyloxy]phenyl]-1,4,11-triazatricyclo[11.5.2.0^16,19]icosa-7,13(20),14,16(19),17-pentaene-3,12-dione] | – | 0.29 µM | 0.58 µM | –
7 | O=C1Cn2c(-c3ccc(O)cc3)c(C3CCCCC3)c3ccc(cc32)C(=O)NCCCCCCN1 [Cpd 8] | > 32 µM | 2.79 µM | – | –
8 | COc1ccc(Br)c(COc2ccc(-c3c(C4CCCCC4)c4ccc5cc4n3CC(=O)NCCCCCCNC5=O)cc2)c1 [Cpd 9, 18-[4-(2-bromo-5-methoxybenzyloxy)phenyl]-17-cyclohexyl-1,4,11-triaza-tricyclo[11.5.2.0^16,19]icosa-13(20),14,16(19),17-tetraene-3,12-dione] | – | 13 µM | 4.8 µM | –
9 | COc1ccc(-c2ccc(Cl)cc2)c(COc2ccc(-c3c(C4CCCCC4)c4ccc5cc4n3CC(=O)NCCCCCCNC5=O)cc2)c1 [Cpd 10, 18-[4-(4′-chloro-4-methoxybiphenyl-2-ylmethoxy)phenyl]-17-cyclohexyl-1,4,11-triazatricyclo[11.5.2.0^16,19]icosa-13(20),14,16(19),17-tetraene-3,12-dione] | – | – | > 32 µM | 6.9 µM
10 | O=C1Cn2c(-c3ccc(OCc4cc(N5CCCC5=O)ccc4N4CCOCC4)cc3)c(C3CCCCC3)c3ccc(cc32)C(=O)NCC/C=C\CCN1 [Cpd 11, 17-Cyclohexyl-18-[4-[2-morpholin-4-yl-5-(2-oxo-pyrrolidin-1-yl)-benzyloxy]-phenyl]-1,4,11-triaza-tricyclo[11.5.2.0^16,19]icosa-7,13(20),14,16(19),17-pentaene-3,12-dione] | – | 0.45 µM | 0.69 µM | –
11 | CS(=O)(=O)N1CCN(c2ccc(N3CCCC3=O)cc2COc2ccc(-c3c(C4CCCCC4)c4ccc5cc4n3CC(=O)NCC/C=C\CCNC5=O)cc2)CC1 [Cpd 12, 17-Cyclohexyl-18-[4-[2-(4-methanesulfonyl-piperazin-1-yl)-5-(2-oxo-pyrrolidin-1-yl)-benzyloxy]-phenyl]-1,4,11-triaza-tricyclo[11.5.2.0^16,19]icosa-7,13(20),14,16(19),17-pentaene-3,12-dione] | – | 0.36 µM | 0.27 µM | –
12 | O=C1Cn2c(-c3ccc(OCc4cc(N5CCCC5=O)ccc4N4CCOCC4)cc3)c(C3CCCCC3)c3ccc(cc32)C(=O)NS(=O)(=O)CC=CCCN1 [Cpd 13, 17-Cyclohexyl-18-[4-[2-morpholin-4-yl-5-(2-oxo-pyrrolidin-1-yl)-benzyloxy]-phenyl]-10,10-dioxo-10λ^6-thia-1,4,11-triaza-tricyclo[11.5.2.0^16,19]icosa-7,13(20),14,16(19),17-pentaene-3,12-dione] | – | – | 2.36 µM | 0.04 µM
13 | CS(=O)(=O)N1CCN(c2ccc(N3CCCC3=O)cc2COc2ccc(-c3c(C4CCCCC4)c4ccc5cc4n3CC(=O)NCCC=CCS(=O)(=O)NC5=O)cc2)CC1 [Cpd 14, 17-Cyclohexyl-18-[4-[2-(4-methanesulfonyl-piperazin-1-yl)-5-(2-oxo-pyrrolidin-1-yl)-benzyloxy]-phenyl]-10,10-dioxo-10λ^6-thia-1,4,11-triaza-tricyclo-[11.5.2.0^16,19]icosa-7,13(20),14,16(19),17-pentaene-3,12-dione] | – | – | 2.04 µM | 0.88 µM
14 | CN1C/C=C\CCNC(=O)Cn2c(-c3ccc(Cl)cc3)c(C3CCCCC3)c3ccc(cc32)C(=O)NS1(=O)=O [Cpd 20, 19-(4-Chloro-phenyl)-18-cyclohexyl-10-methyl-11,11-dioxo-11λ^6-thia-1,4,10,12-tetraaza-tricyclo[12.5.2.017,20]henicosa-7,14(21),15,17(20),18-pentaene-3,13-dione] | – | – | 0.61 µM | –
15 | CN1CCCCCNC(=O)Cn2c(-c3ccccc3)c(C3CCCCC3)c3ccc(cc32)C(=O)NS1(=O)=O [Cpd 22, 18-Cyclohexyl-10-methyl-11,11-dioxo-19-phenyl-11λ^6-thia-1,4,10,12-tetraaza-tricyclo[12.5.2.017,20]henicosa-14(21),15,17(20),18-tetraene-3,13-dione] | – | – | 0.43 µM | –
16 | CN1CCCCCNC(=O)Cn2c(-c3ccoc3)c(C3CCCCC3)c3ccc(cc32)C(=O)NS1(=O)=O [Cpd 30, 18-Cyclohexyl-19-furan-3-yl-10-methyl-11,11-dioxo-11λ^6-thia-1,4,10,12-tetraaza-tricyclo[12.5.2.017,20]henicosa-14(21),15,17(20),18-tetraene-3,13-dione] | – | – | 0.79 µM | –
